Source: PubChem BioAssay AID1918954 (Molecular Pharmacology Branch, DTP, NCI, 2023)

Test system: MDA-MB-468 complex spheroids with HUVEC/MSC, viability
Assay: Anticancer human tumor MDA-MB-468 cell line growth inhibition;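 also: spheroids exposed to agents for seven days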;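 as to viability, T/C: 100% = DMSO vehicle control viability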
Conditions: for IC50: curve of first compound; for viability, T/C: stronger effect = lower value
In short: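 Complex spheroids of tumor cells with HUVEC and human MSCs, exposed to iadademstat combined with other agents. Each agent tested in half-log steps from near clinical Cmax (else 10 microM top), DMSO ≤0.25%.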

[1] = second compound 0.1 µM, first compound 0.0316 µM
[2] = second compound 0.1 µM, first compound 0.1 µM
[3] = second compound 0.316 µM, first compound 0.0316 µM
[4] = second compound 0.316 µM, first compound 0.1 µM
[5] = second compound 1 µM, first compound 0.0316 µM
[6] = second compound 1 µM, first compound 0.1 µM
[7] = second compound 3.16 µM, first compound 0.0316 µM
[8] = second compound 3.16 µM, first compound 0.1 µM
[9] = second compound 10 µM, first compound 0.0316 µM
[10] = second compound 10 µM, first compound 0.1 µM
[11] = second compound 0.1 µM, first compound 0.000949 µM
[12] = second compound 0.1 µM, first compound 0.003 µM
[13] = second compound 0.1 µM, first compound 0.00949 µM
[14] = second compound 0.1 µM, first compound 0.03 µM
[15] = second compound 0.1 µM, first compound 0.0949 µM
[16] = second compound 0.1 µM, first compound 0.3 µM
[17] = second compound 0.316 µM, first compound 0.000949 µM
[18] = second compound 0.316 µM, first compound 0.003 µM
[19] = second compound 0.316 µM, first compound 0.00949 µM
[20] = second compound 0.316 µM, first compound 0.03 µM
[21] = second compound 0.316 µM, first compound 0.0949 µM
[22] = second compound 0.316 µM, first compound 0.3 µM
[23] = second compound 1 µM, first compound 0.000949 µM
[24] = second compound 1 µM, first compound 0.003 µM
[25] = second compound 1 µM, first compound 0.00949 µM
[26] = second compound 1 µM, first compound 0.03 µM
[27] = second compound 1 µM, first compound 0.0949 µM
[28] = second compound 1 µM, first compound 0.3 µM
[29] = second compound 3.16 µM, first compound 0.000949 µM
[30] = second compound 3.16 µM, first compound 0.003 µM
[31] = second compound 3.16 µM, first compound 0.00949 µM
[32] = second compound 3.16 µM, first compound 0.03 µM
[33] = second compound 3.16 µM, first compound 0.0949 µM
[34] = second compound 3.16 µM, first compound 0.3 µM
[35] = second compound 10 µM, first compound 0.000949 µM
[36] = second compound 10 µM, first compound 0.003 µM
[37] = second compound 10 µM, first compound 0.00949 µM
[38] = second compound 10 µM, first compound 0.03 µM
[39] = second compound 10 µM, first compound 0.0949 µM
[40] = second compound 10 µM, first compound 0.3 µM

CC(C)CC(NC(=O)C(Cc1ccccc1)NC(=O)c1cnccn1)B(O)O (stereo not given) + NC1CCC(NC2CC2c2ccccc2)CC1
IC50 (second compound 0.1 µM): 0.699 nM | IC50 (second compound 0.316 µM): 0.592 nM | IC50 (second compound 1 µM): 0.642 nM | IC50 (second compound 3.16 µM): 0.646 nM | IC50 (second compound 10 µM): 0.562 nM | viability, T/C (second compound 0.1 µM, first compound 0.000316 µM): 102% | viability, T/C (second compound 0.1 µM, first compound 0.001 µM): 26.4% | viability, T/C (second compound 0.1 µM, first compound 0.00316 µM): 1.52% | viability, T/C (second compound 0.1 µM, first compound 0.01 µM): 0.94% | viability, T/C [1]: 1.06% | viability, T/C [2]: 1.23% | viability, T/C (second compound 0.316 µM, first compound 0.000316 µM): 86.6% | viability, T/C (second compound 0.316 µM, first compound 0.001 µM): 19.5% | viability, T/C (second compound 0.316 µM, first compound 0.00316 µM): 0.94% | viability, T/C (second compound 0.316 µM, first compound 0.01 µM): 1.12% | viability, T/C [3]: 1% | viability, T/C [4]: 0.68% | viability, T/C (second compound 1 µM, first compound 0.000316 µM): 94.1% | viability, T/C (second compound 1 µM, first compound 0.001 µM): 22.2% | viability, T/C (second compound 1 µM, first compound 0.00316 µM): 0.63% | viability, T/C (second compound 1 µM, first compound 0.01 µM): 1.08% | viability, T/C [5]: 1.55% | viability, T/C [6]: 0.88% | viability, T/C (second compound 3.16 µM, first compound 0.000316 µM): 91.9% | viability, T/C (second compound 3.16 µM, first compound 0.001 µM): 24.5% | viability, T/C (second compound 3.16 µM, first compound 0.00316 µM): 1.11% | viability, T/C (second compound 3.16 µM, first compound 0.01 µM): 1% | viability, T/C [7]: 0.77% | viability, T/C [8]: 1.37% | viability, T/C (second compound 10 µM, first compound 0.000316 µM): 83.9% | viability, T/C (second compound 10 µM, first compound 0.001 µM): 16.1% | viability, T/C (second compound 10 µM, first compound 0.00316 µM): 1.08% | viability, T/C (second compound 10 µM, first compound 0.01 µM): 0.25% | viability, T/C [9]: 1.63% | viability, T/C [10]: 2.35%

CCc1c2c(nc3ccc(O)cc13)-c1cc3c(c(=O)n1C2)COC(=O)[C@]3(O)CC + NC1CCC(NC2CC2c2ccccc2)CC1
IC50 (second compound 0.1 µM): < 0.949 nM | IC50 (second compound 0.316 µM): < 0.949 nM | IC50 (second compound 1 µM): < 0.949 nM | IC50 (second compound 3.16 µM): < 0.949 nM | IC50 (second compound 10 µM): < 0.949 nM | viability, T/C [11]: 7.86% | viability, T/C [12]: 7.19% | viability, T/C [13]: 4.23% | viability, T/C [14]: 3.08% | viability, T/C [15]: 2.21% | viability, T/C [16]: 2.02% | viability, T/C [17]: 6.84% | viability, T/C [18]: 5.38% | viability, T/C [19]: 3.66% | viability, T/C [20]: 3.28% | viability, T/C [21]: 1.33% | viability, T/C [22]: 2.06% | viability, T/C [23]: 6.78% | viability, T/C [24]: 6.71% | viability, T/C [25]: 4.78% | viability, T/C [26]: 2.79% | viability, T/C [27]: 1.75% | viability, T/C [28]: 2.02% | viability, T/C [29]: 7.33% | viability, T/C [30]: 4.42% | viability, T/C [31]: 4.73% | viability, T/C [32]: 3.2% | viability, T/C [33]: 2.84% | viability, T/C [34]: 1.88% | viability, T/C [35]: 6.82% | viability, T/C [36]: 5.98% | viability, T/C [37]: 4.27% | viability, T/C [38]: 3.39% | viability, T/C [39]: 2.46% | viability, T/C [40]: 2.29%

Nc1ccccc1NC(=O)c1ccc(CNC(=O)OCc2cccnc2)cc1 + NC1CCC(NC2CC2c2ccccc2)CC1
IC50 (second compound 0.1 µM): 170 nM | IC50 (second compound 0.316 µM): 140 nM | IC50 (second compound 1 µM): 127 nM | IC50 (second compound 3.16 µM): 143 nM | IC50 (second compound 10 µM): 111 nM | viability, T/C [13]: 97.4% | viability, T/C [14]: 106% | viability, T/C [15]: 87.2% | viability, T/C [16]: 13.9% | viability, T/C (second compound 0.1 µM, first compound 0.949 µM): 3.13% | viability, T/C (second compound 0.1 µM, first compound 3 µM): 1.48% | viability, T/C [19]: 102% | viability, T/C [20]: 103% | viability, T/C [21]: 67.7% | viability, T/C [22]: 14.6% | viability, T/C (second compound 0.316 µM, first compound 0.949 µM): 3.32% | viability, T/C (second compound 0.316 µM, first compound 3 µM): 0.9% | viability, T/C [25]: 89.1% | viability, T/C [26]: 90.3% | viability, T/C [27]: 61.2% | viability, T/C [28]: 15.9% | viability, T/C (second compound 1 µM, first compound 0.949 µM): 2.93% | viability, T/C (second compound 1 µM, first compound 3 µM): 1.42% | viability, T/C [31]: 80.8% | viability, T/C [32]: 83.7% | viability, T/C [33]: 69.6% | viability, T/C [34]: 14.9% | viability, T/C (second compound 3.16 µM, first compound 0.949 µM): 3.07% | viability, T/C (second compound 3.16 µM, first compound 3 µM): 1.04% | viability, T/C [37]: 59.9% | viability, T/C [38]: 61% | viability, T/C [39]: 56% | viability, T/C [40]: 13.4% | viability, T/C (second compound 10 µM, first compound 0.949 µM): 3.05% | viability, T/C (second compound 10 µM, first compound 3 µM): 1.52%

Nc1ccn(C2OC(CO)C(O)C2(F)F)c(=O)n1 (stereo not given) + NC1CCC(NC2CC2c2ccccc2)CC1
IC50 (second compound 0.1 µM): < 0.949 nM | IC50 (second compound 0.316 µM): < 0.949 nM | IC50 (second compound 1 µM): < 0.949 nM | IC50 (second compound 3.16 µM): < 0.949 nM | IC50 (second compound 10 µM): < 0.949 nM | viability, T/C [11]: 5.76% | viability, T/C [12]: 4.85% | viability, T/C [13]: 5.57% | viability, T/C [14]: 4.54% | viability, T/C [15]: 4.56% | viability, T/C [16]: 5.13% | viability, T/C [17]: 5.33% | viability, T/C [18]: 5.22% | viability, T/C [19]: 5.23% | viability, T/C [20]: 4.88% | viability, T/C [21]: 5.47% | viability, T/C [22]: 5.64% | viability, T/C [23]: 6.43% | viability, T/C [24]: 6.38% | viability, T/C [25]: 5.41% | viability, T/C [26]: 4.34% | viability, T/C [27]: 4.71% | viability, T/C [28]: 5.55% | viability, T/C [29]: 6.65% | viability, T/C [30]: 5.98% | viability, T/C [31]: 5.78% | viability, T/C [32]: 5.89% | viability, T/C [33]: 4.69% | viability, T/C [34]: 5.66% | viability, T/C [35]: 7.63% | viability, T/C [36]: 6.29% | viability, T/C [37]: 6.52% | viability, T/C [38]: 7.12% | viability, T/C [39]: 5.35% | viability, T/C [40]: 5.45%

O=C(c1cc(Cc2n[nH]c(=O)c3ccccc23)ccc1F)N1CCN(C(=O)C2CC2)CC1 + NC1CCC(NC2CC2c2ccccc2)CC1
IC50 (second compound 0.1 µM): 775 nM | IC50 (second compound 0.316 µM): 812 nM | IC50 (second compound 1 µM): 786 nM | IC50 (second compound 3.16 µM): 909 nM | IC50 (second compound 10 µM): 411 nM | viability, T/C [1]: 89.5% | viability, T/C [2]: 103% | viability, T/C (second compound 0.1 µM, first compound 0.316 µM): 76.2% | viability, T/C (second compound 0.1 µM, first compound 1 µM): 42.6% | viability, T/C (second compound 0.1 µM, first compound 3.16 µM): 19.3% | viability, T/C (second compound 0.1 µM, first compound 10 µM): 13.6% | viability, T/C [3]: 93.8% | viability, T/C [4]: 87.8% | viability, T/C (second compound 0.316 µM, first compound 0.316 µM): 71.4% | viability, T/C (second compound 0.316 µM, first compound 1 µM): 47.7% | viability, T/C (second compound 0.316 µM, first compound 3.16 µM): 18.2% | viability, T/C (second compound 0.316 µM, first compound 10 µM): 13.8% | viability, T/C [5]: 90.2% | viability, T/C [6]: 80.8% | viability, T/C (second compound 1 µM, first compound 0.316 µM): 71.7% | viability, T/C (second compound 1 µM, first compound 1 µM): 45.2% | viability, T/C (second compound 1 µM, first compound 3.16 µM): 21% | viability, T/C (second compound 1 µM, first compound 10 µM): 15.1% | viability, T/C [7]: 68.4% | viability, T/C [8]: 75.3% | viability, T/C (second compound 3.16 µM, first compound 0.316 µM): 77% | viability, T/C (second compound 3.16 µM, first compound 1 µM): 47.9% | viability, T/C (second compound 3.16 µM, first compound 3.16 µM): 20.8% | viability, T/C (second compound 3.16 µM, first compound 10 µM): 17% | viability, T/C [9]: 73.9% | viability, T/C [10]: 65.8% | viability, T/C (second compound 10 µM, first compound 0.316 µM): 53.4% | viability, T/C (second compound 10 µM, first compound 1 µM): 38.9% | viability, T/C (second compound 10 µM, first compound 3.16 µM): 23.6% | viability, T/C (second compound 10 µM, first compound 10 µM): 18.6%
